The source of these data is patent publication US7595156B2 (priority 2003, dated 2009).

Structures are written as SMILES.

For assay [1] the following is noted: background statement, Liang and Zhou 1987; cited from earlier work.
Assay [2] concerns mosquito larva. Particulars: background statement, Liang and Zhou 1987; cited from earlier work.
The test system of assay [3] is Saccharomyces cerevisiae. In words: Antifungal activity test, growth inhibition zones. The format is cell-based. Particulars: activity of the CS101 and CS102 culture mediums attributed to the variants produced in the mutant strains; FIG. 7. Here is the method: FR-008 mutant strains CS101 and CS102 were added (see, FIG. 7). In FIG. 7, the left turbid zone is a zone added with Streptomyces sp. FR-008, the middle is a zone added with the mutant strain CS101, and the right is a zone added with the mutant strain CS102. […] This is caused by the polyketide variants V, VI, VIII, IX, X, XI and XII, which are produced in the mutant strains.

As for `C[C@H](C[C@H](C)[C@@H]1OC(=O)CC(=O)CCCC(=O)C[C@@H](O)C[C@@H](O)C[C@@H](O)C[C@]2(O)C[C@H](O)[C@H](C(=O)O)[C@H](C[C@H](O[C@@H]3O[C@@H](C)[C@H](O)[C@@H](N)[C@H]3O)/C=C/C=C/C=C/C=C/C=C/C=C/C=C/[C@@H]1C)O2)[C@H](O)CC(=O)c1ccc(N)cc1` [FR-008 polyketide], the antifungal activity result in assay [1] is “antifungal activity”. For the same compound, the “toxicity against mosquito larva” value in assay [2] is given as “high toxicity”.

Consider `C[C@H](C[C@H](C)[C@@H]1OC(=O)CC(=O)CCCC(=O)CCC[C@@H](O)C[C@@H](O)CC(=O)C[C@H](O)[C@H](C(=O)O)[C@@H](O)C[C@H](O[C@@H]2O[C@@H](C)[C@H](O)C(=O)[C@H]2O)/C=C/C=C/C=C/C=C/C=C/C=C/C=C/[C@@H]1C)[C@H](O)CC(=O)c1ccc(N)cc1` [polyketide XII], for which the “antifungal activity of polyketide variants” value in assay [3] is “antifungal activity”.
